According to US20140364453A1, “SALUBRINAL-DRIVEN ATTENUATION OF MALIGNANT PHENOTYPES OF 4T1 BREAST CANCER CELLS” (Indiana University Research and Technology Corporation, priority 2013, published 2014):

Columns and labels:
[1] = tested on: 4T1 cells; assay: In vitro invasion assay (Boyden chamber, Matrigel), 4T1 cells; format: cell-based, mouse; details: for number of cells invaded through the filter coated with Matrigel: 4T1 cells, 24 h, regardless of serum, 10-50 μM salubrinal, 5-50 μM guanabenz
Protocol: (§1) 4T1 mouse mammary tumor cells and MDA-MB-231 human breast cancer cells were cultured in DMEM containing 10% fetal bovine serum and antibiotics (50 units/ml penicillin, and 50 μg/ml streptomycin; Life Technologies, Grand Island, N.Y., USA). Cells were maintained at 37° C. and 5% CO2 in a humidified incubator. Responses to administration of 10-50 μM salubrinal or 5-50 μM guanabenz acetate (Tocris Bioscience, Ellisville, Mo., USA) were evaluated using assays for MTT, adhesion, invasion, and motility. An invasion assay was performed with a Boyden chamber with minor modifications of the usual procedure. In brief, Matrigel (BD Biosciences) was diluted with ice-cold PBS (100 μg/ml). Six-hundred μl of Matrigel was added to each filter (polyethylene terephthalate membrane, 8-μm pore size, 23.1 mm in diameter, Falcon) and left to polymerize overnight. Prior to assembling the chamber unit, the lower chamber (6-well plate, Falcon) was filled with culture medium consisting of salubrinal or guanabenz. Cells (1˜4×10^5/well) were added to the culture medium with salubrinal or guanabenz in the upper chamber and incubated for 24 h. The cells on the filter surface were stained with Giemsa (Sigma-Aldrich) and the number of cells was counted under the microscope.

[2] = tested on: NFATc1; assay: NFATc1 protein expression in primary mouse bone marrow cells; format: cell-based; details: 10 or 20 μM; 2 days
[3] = tested on: 4T1 cells; assay: Two-dimensional wound healing scratch motility assay, 4T1 cells; format: cell-based, mouse; details: for cell motility (scratch-wound assay): 4T1 cells, 20 or 50 μM, 24 h
Protocol: (§2) 4T1 mouse mammary tumor cells and MDA-MB-231 human breast cancer cells were cultured in DMEM containing 10% fetal bovine serum and antibiotics (50 units/ml penicillin, and 50 μg/ml streptomycin; Life Technologies, Grand Island, N.Y., USA). Cells were maintained at 37° C. and 5% CO2 in a humidified incubator. Responses to administration of 10-50 μM salubrinal or 5-50 μM guanabenz acetate (Tocris Bioscience, Ellisville, Mo., USA) were evaluated using assays for MTT, adhesion, invasion, and motility. To evaluate 2-dimensional motility, a wound healing scratch motility assay was carried out. In brief, cells were plated in 12-well plates or 6-cm dishes (Falcon) and on the next day, scratching was performed using a plastic tip. The areas newly occupied with cells in the scratched zone were determined every 3 h up to 24 h using images obtained by a microscope, which were scanned with Adobe Photoshop (CS2, Adobe Systems, San Jose, Calif., USA) and quantified with Image J.

[4] = tested on: 4T1 cells; assay: Cell adhesion assay, 4T1 cells; format: cell-based, mouse; details: surfaces coated with poly-L-lysine, type I collagen, fibronectin, laminin; 30 min and 3 h
Protocol: 4T1 mouse mammary tumor cells and MDA-MB-231 human breast cancer cells were cultured in DMEM containing 10% fetal bovine serum and antibiotics (50 units/ml penicillin, and 50 μg/ml streptomycin; Life Technologies, Grand Island, N.Y., USA). Cells were maintained at 37° C. and 5% CO2 in a humidified incubator. Responses to administration of 10-50 μM salubrinal or 5-50 μM guanabenz acetate (Tocris Bioscience, Ellisville, Mo., USA) were evaluated using assays for MTT, adhesion, invasion, and motility. Ninety-six well plates were coated with poly-L-lysine, fibronectin, laminin (Sigma-Aldrich, St. Louis, Mo., USA), or type I collagen (BD Biosciences, Bedford, Mass., USA) for 2 h. The plates were then incubated with non-fat dry milk, followed by washing with PBS and serum-free culture medium. Cells (1×10^4/well) were added on the plate, and after 30 min and 3 h the attached cells were stained with 0.04% crystal violet (Sigma-Aldrich) for 10 min at room temperature. The wells were washed with PBS, and DMSO was added. Absorbance at 550 nm was measured using the plate reader.

[5] = tested on: cleaved caspase 3; assay: Western blot of cleaved caspase 3, 4T1 cells; format: cell-based, mouse; details: absence and presence of 10% serum, 10-50 μM salubrinal, 5-50 μM guanabenz
Protocol: (§3) 4T1 mouse mammary tumor cells and MDA-MB-231 human breast cancer cells were cultured in DMEM containing 10% fetal bovine serum and antibiotics (50 units/ml penicillin, and 50 μg/ml streptomycin; Life Technologies, Grand Island, N.Y., USA). Cells were maintained at 37° C. and 5% CO2 in a humidified incubator. Responses to administration of 10-50 μM salubrinal or 5-50 μM guanabenz acetate (Tocris Bioscience, Ellisville, Mo., USA) were evaluated using assays for MTT, adhesion, invasion, and motility. Cells were lysed in a radioimmunoprecipitation assay (RIPA) buffer containing protease inhibitors (Santa Cruz Biotechnology, Santa Cruz, Calif., USA) and phosphatase inhibitors (Calbiochem, Billerica, Mass., USA). Isolated proteins were fractionated using 10-15% SDS gels and electro-transferred to Immobilon-P membranes (Millipore, Billerica, Mass., USA). The membrane was incubated for 1 h with primary antibodies followed by 45 min incubation with goat anti-rabbit or anti-mouse IgG conjugated with horseradish peroxidase (Cell Signaling, Danvers, Mass., USA). […] Protein levels were assayed using a SuperSignal west femto maximum sensitivity substrate (Thermo Scientific, Waltham, Mass., USA), and signal intensities were quantified with a luminescent image analyzer (LAS-3000, Fuji Film, Tokyo, Japan).

[6] = tested on: NFATc1, TRAP, OSCAR, c-fos, MMP9, and cathepsin K; assay: Relative mRNA abundance in primary mouse bone marrow cells; format: cell-based; details: 10 μM; 24 h
[7] = tested on: 4T1 mouse mammary tumor cells; assay: MTT assay, 4T1 cells; format: cell-based
Protocol: (§4) 4T1 mouse mammary tumor cells and MDA-MB-231 human breast cancer cells were cultured in DMEM containing 10% fetal bovine serum and antibiotics (50 units/ml penicillin, and 50 μg/ml streptomycin; Life Technologies, Grand Island, N.Y., USA). Cells were maintained at 37° C. and 5% CO2 in a humidified incubator. Responses to administration of 10-50 μM salubrinal or 5-50 μM guanabenz acetate (Tocris Bioscience, Ellisville, Mo., USA) were evaluated using assays for MTT, adhesion, invasion, and motility. Cells (5×10^2/well) were seeded in 96-well plates, and the reduction of MTT to formazan was evaluated by measuring the absorbance at 570 nm with a plate reader (EL800, BioTek, Winooski, Vt., USA).

[8] = tested on: primary mouse bone marrow cells; assay: Osteoclastogenesis in primary mouse bone marrow cells; format: cell-based; details: 10 or 20 μM; 3 days
[9] = tested on: Rac1 GTPase; assay: FRET-based Rac1 activity imaging, 4T1 cells; format: cell-based, mouse; details: 20 μM salubrinal
Protocol: (§5) To visualize Rac1 activity in response to salubrinal, FRET imaging was conducted using a cyan fluorescent protein (CFP)-yellow fluorescent protein (YFP) Rac1 biosensor. The filter sets (Semrock) were chosen for CFP excitation at 438±24 nm (center wavelength±bandwidth), CFP emission at 483±32 nm, and YFP emission at 542±27 nm. Time-lapse images were acquired at an interval of 5 min using a fluorescence microscope (Nikon, Tokyo, Japan). The level of Rac1 activity was determined by computing an emission ratio of YFP/CFP for individual cells using NIS-Elements software (Nikon).

[10] = tested on: cleaved caspase 3; assay: Western blot of cleaved caspase 3, MDA-MB-231 cells; format: cell-based, human; details: 20 or 50 μM salubrinal, absence of serum
Protocol: as §3

[11] = tested on: MDA-MB-231 human breast cancer cells; assay: MTT assay, MDA-MB-231 cells; format: cell-based; details: 20 or 50 μM salubrinal
Protocol: as §4

[12] = tested on: 4T1 mouse mammary tumor cells; assay: In vivo tumor growth, BALB/c mice injected with 4T1 cells; details: 4T1 cells s.c., 25 μg salubrinal s.c. daily, day 20, mean±S.D., N=18
Protocol: Experimental procedures were approved by the Indiana University Animal Care and Use Committee and were in compliance with the Guiding Principles in the Care and Use of Animals endorsed by the American Physiological Society. Five mice were housed per cage, and fed with mouse chow and water ad libitum. Thirty-five BALB/c female mice (6 weeks, Harlan Laboratories) were used. Mice received subcutaneous injection of 4T1 mouse mammary tumor cells (10^6 cells in 100 μl PBS) to the abdomen on day 1. Twenty-five μg of salubrinal was administered subcutaneously into the area of cell injection every day, while the control animals received a vehicle. The animals were sacrificed on day 20, and the volume and weight of tumors were determined. The tumor volume was calculated as (long diameter)×(short diameter)^2/2.

[13] = tested on: MDA-MB-231 human breast cancer cells; assay: In vitro invasion assay, MDA-MB-231 cells; format: cell-based; details: 20 or 50 μM salubrinal, 24 h, absence of serum
Protocol: as §1

[14] = tested on: Rac1 GTPase; assay: FRET-based Rac1 activity imaging, MDA-MB-231 cells; format: cell-based, human; details: 20 μM salubrinal
Protocol: as §5

[15] = tested on: MDA-MB-231 human breast cancer cells; assay: Scratch motility assay, MDA-MB-231 cells; format: cell-based; details: 20 or 50 μM salubrinal, 24 h, 10% serum
Protocol: as §2

| Structure (SMILES) | number of cells invaded through the filter coated with Matrigel [1] | NFATc1 protein expression [2] | cell motility (scratch-wound assay) [3] | cell adhesion (absorbance reading, number of adherent cells) [4] | level of cleaved caspase 3 [5] | mRNA levels of NFATc1, TRAP, OSCAR, c-fos, MMP9, and cathepsin K [6] | TRAP-positive multi-nucleated cells [8] | development of osteoclasts [8] | further results |
| --- | --- | --- | --- | --- | --- | --- | --- | --- | --- |
| N=C(N)N/N=C/c1c(Cl)cccc1Cl [guanabenz] | significantly reduced | Suppression | reduced in a dose dependent manner | did not significantly change | elevated | reduced | Reduction | Reduced development of osteoclasts | number of live 4T1 cells (MTT) ([7]; 50 μM guanabenz): decreased |
| O=C(/C=C/c1ccccc1)NC(NC(=S)Nc1cccc2cccnc12)C(Cl)(Cl)Cl (stereo not drawn) [salubrinal] | significantly reduced | Suppression | reduced in a dose dependent manner | did not significantly change | elevated | reduced | Reduction | Reduced development of osteoclasts | salubrinal-driven reduction in Rac1 activity ([9]; 4T1 cells transfected with eIF2α siRNA): significantly suppressed; Rac1 activity (emission ratio of YFP/CFP) ([9]; 4T1 cells): decreased; cleaved caspase 3 [10]: Dose-dependent elevation; salubrinal-driven reduction in cell invasion ([1]; 4T1 cells treated with eIF2α siRNA vs NC siRNA, 20 or 50 μM salubrinal): significantly suppressed; cell invasion ([1]; 4T1 control cells treated with NC siRNA, 20 or 50 μM salubrinal): reduced by salubrinal in a dose dependent manner; proliferation (relative cell growth) [11]: inhibitory effects; tumor volume [12]: 384.5±248.1 mm^3; tumor weight [12]: 0.32 ± 0.24 g; cell invasion [13]: Reduction in cell invasion; Rac1 activity (emission ratio of YFP/CFP) [14]: decreased; salubrinal-driven reduction in cell motility ([3]; 4T1 cells treated with eIF2α siRNA, 20 or 50 μM salubrinal): also suppressed; cell motility [15]: Reduction in cell motility; number of live 4T1 cells (MTT) ([7]; 10, 20, and 50 μM salubrinal): reduced in a dose dependent manner |
